How the values were obtained:
[1] = molecular target: T1, Epidermal growth factor receptor (Homo sapiens, UniProt P00533); assay: Inhibition of EGFR (unknown origin) by Z'-LYTE assay
[2] = molecular target: T1, Epidermal growth factor receptor; assay: Inhibition of EGFR (unknown origin) using Poly(Glu:Tyr) 4:1 as substrate after 12 to 16 hrs
[3] = molecular target: T1, Epidermal growth factor receptor; assay: Inhibition of EGFR (unknown origin) after 40 mins by scintillation proximity assay

T1 sequence (P00533 whole entry): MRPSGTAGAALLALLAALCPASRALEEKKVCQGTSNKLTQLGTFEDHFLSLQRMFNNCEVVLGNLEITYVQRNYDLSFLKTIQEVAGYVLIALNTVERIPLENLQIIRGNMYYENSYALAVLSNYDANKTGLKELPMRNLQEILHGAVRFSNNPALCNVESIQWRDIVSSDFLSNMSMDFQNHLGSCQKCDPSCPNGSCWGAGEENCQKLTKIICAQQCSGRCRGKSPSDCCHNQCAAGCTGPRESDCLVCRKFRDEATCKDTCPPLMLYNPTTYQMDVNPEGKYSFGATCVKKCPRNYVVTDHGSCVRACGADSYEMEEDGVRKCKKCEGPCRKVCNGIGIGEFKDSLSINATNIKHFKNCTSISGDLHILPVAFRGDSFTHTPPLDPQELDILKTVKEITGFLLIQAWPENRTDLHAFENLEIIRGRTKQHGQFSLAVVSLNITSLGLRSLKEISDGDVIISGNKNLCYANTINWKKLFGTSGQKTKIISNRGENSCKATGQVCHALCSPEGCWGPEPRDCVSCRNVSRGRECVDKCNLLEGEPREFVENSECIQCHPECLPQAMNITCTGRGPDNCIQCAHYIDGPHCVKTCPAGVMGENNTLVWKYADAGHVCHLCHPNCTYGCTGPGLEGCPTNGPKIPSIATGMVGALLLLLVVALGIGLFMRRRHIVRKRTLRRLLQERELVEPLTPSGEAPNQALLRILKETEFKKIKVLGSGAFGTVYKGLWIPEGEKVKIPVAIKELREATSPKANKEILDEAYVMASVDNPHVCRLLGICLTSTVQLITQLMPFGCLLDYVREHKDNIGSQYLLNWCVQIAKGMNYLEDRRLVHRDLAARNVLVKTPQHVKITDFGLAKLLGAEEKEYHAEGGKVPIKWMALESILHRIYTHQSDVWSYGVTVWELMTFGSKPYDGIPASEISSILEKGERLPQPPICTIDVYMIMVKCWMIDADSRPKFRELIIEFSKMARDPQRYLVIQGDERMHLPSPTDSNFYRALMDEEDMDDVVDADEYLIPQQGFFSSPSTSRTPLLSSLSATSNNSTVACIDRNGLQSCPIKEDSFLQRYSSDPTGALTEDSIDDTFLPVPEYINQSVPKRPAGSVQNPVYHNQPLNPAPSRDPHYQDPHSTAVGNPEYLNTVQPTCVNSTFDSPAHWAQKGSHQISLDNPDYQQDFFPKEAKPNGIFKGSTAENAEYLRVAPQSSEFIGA

SMILES	IC50 [1] [nM]	also measured
COc1ccccc1-c1cc2c(NCc3ccccn3)ncnc2s1	183	–
COc1ccccc1-c1cc2c(N[C@H](C)c3ccccn3)ncnc2s1	153	–
Fc1ccc(Nc2ncnc3sc(Br)cc23)cc1Cl	53	–
C#Cc1cccc(Nc2ncnc3sc(Br)cc23)c1	23	–
Brc1cc2c(Nc3cccc(OCc4ccccc4)c3)ncnc2s1	> 10000	–
Fc1cccc(COc2ccc(Nc3ncnc4sc(Br)cc34)cc2Cl)c1	257	–
COc1ccccc1-c1cc2c(NCc3ccccc3)ncnc2s1	17	–
COc1ccccc1-c1cc2c(N[C@H](C)c3ccccc3)ncnc2s1	9	–
COc1ccccc1-c1cc2c(N[C@@H](C)c3ccccc3)ncnc2s1	1860	–
COc1ccccc1-c1cc2c(N[C@H](CO)c3ccccc3)ncnc2s1	1	–
COc1ccccc1-c1cc2c(N[C@@H](CO)c3ccccc3)ncnc2s1	629	–
COC[C@@H](Nc1ncnc2sc(-c3ccccc3OC)cc12)c1ccccc1	23	–
COc1ccccc1-c1cc2c(N[C@H](C)c3ccc(F)cc3)ncnc2s1	27	–
COc1ccccc1-c1cc2c(NCc3ccncc3)ncnc2s1	108	–
COc1ccccc1-c1cc2c(NCc3cccnc3)ncnc2s1	275	–
Brc1cc2c(NCc3ccccc3)ncnc2s1	241	–
C[C@@H](Nc1ncnc2sc(Br)cc12)c1ccccc1	38	–
C[C@H](Nc1ncnc2sc(Br)cc12)c1ccccc1	> 10000	–
OC[C@@H](Nc1ncnc2sc(Br)cc12)c1ccccc1	36	–
OC[C@H](Nc1ncnc2sc(Br)cc12)c1ccccc1	> 10000	–
COC[C@@H](Nc1ncnc2sc(Br)cc12)c1ccccc1	262	–
COC[C@H](Nc1ncnc2sc(Br)cc12)c1ccccc1	> 10000	–

SMILES	IC50 [1] [nM]	also measured
CC[C@@H](Nc1ncnc2sc(Br)cc12)c1ccccc1	183	–
C[C@@H](Nc1ncnc2sc(Br)cc12)c1ccc(F)cc1	150	–
Brc1cc2c(NCc3ccncc3)ncnc2s1	3880	–
Brc1cc2c(NCc3cccnc3)ncnc2s1	> 10000	–
Brc1cc2c(NCc3ccccn3)ncnc2s1	7900	–
C[C@@H](Nc1ncnc2sc(Br)cc12)c1ccccn1	2080	–
Brc1cc2c(NCc3cccs3)ncnc2s1	1370	–
C[C@@H](Nc1ncnc2sc(Br)cc12)c1cccs1	415	–
Brc1cc2c(Nc3ccccc3)ncnc2s1	80	–
COc1ccccc1-c1cc2c(NCc3cccs3)ncnc2s1	170	–
COc1ccccc1-c1cc2c(N[C@H](C)c3cccs3)ncnc2s1	55	–
COc1ccccc1-c1cc2c(Nc3ccccc3)ncnc2s1	173	–
COc1ccccc1-c1cc2c(Nc3ccc(F)c(Cl)c3)ncnc2s1	5	–
C#Cc1cccc(Nc2ncnc3sc(-c4ccccc4OC)cc23)c1	18	–
OC[C@@H](Nc1ncnc2sc(-c3ccc(CN4CCNCC4)cc3)cc12)c1ccccc1	–	IC50 [2]: 600 nM
OCCN1CCN(Cc2ccc(-c3cc4c(N[C@H](CO)c5ccccc5)ncnc4s3)cc2)CC1	–	IC50 [2]: 600 nM
O=C(c1ccc(-c2cc3c(N[C@H](CO)c4ccccc4)ncnc3s2)cc1)N1CCN(CCO)CC1	–	IC50 [2]: > 5000 nM
Fc1cccc(COc2ccc(Nc3ncnc4sc(C#CC5CCCN5)cc34)cc2Cl)c1 (centres undefined)	–	IC50 [3]: 109 nM
COc1ccccc1-c1cc2c(NC(C)c3ccccc3)ncnc2s1 (racemic)	19	–
COc1ccccc1-c1cc2c(NC(CO)c3ccccc3)ncnc2s1 (racemic)	8	–
CC(Nc1ncnc2sc(Br)cc12)c1ccccc1 (racemic)	156	–
OCC(Nc1ncnc2sc(Br)cc12)c1ccccc1 (racemic)	83	–

Source: ChEMBL document CHEMBL3414443, “Truncated structures used in search for new lead compounds and in a retrospective analysis of thienopyrimidine-based EGFR inhibitors” (Eur J Med Chem, 2015)
